{
  "source": "patent US8367729B2",
  "about": "“Composition with preventive or improvement effect on symptoms or diseases associated with stress-induced behavior disorders” (Suntory Holdings Limited, priority 2004, dated 2013)",
  "key": {"[1]": {"system": "mice subjected to restraint stress", "assay": "Behavioral observation test (Irwin neurobehavioral test method) after 6-hour restraint stress", "assay_type": "in vivo, male ICR mice", "details": "conclusion of Example 3", "excerpt": "The experimental groups consisted of 51 two- to three-month-old male ICR mice, divided into a control diet group (27 mice) and a TG[…]-containing diet group (24 mice), with the control diet or TG[…]-containing diet shown in Table 1 being given to each group. Each group was further divided into non-restrained groups (non-restrained control diet group (9), non-restrained arachidonic acid (ARA) diet group (12)) and restrained groups (restrained control diet group (18), restrained ARA diet group (12)). The restraining was accomplished using a wire mesh restraining tube, once for a 6 hour period three weeks after the start of feeding. The control diet or TG[…]-containing diet shown in Table 1 continued to be fed to each group for the remaining experiment period. The TG[…] used for the TG[…]-containing diet was the product obtained in Example 1. Since the daily ingestion was approximately 5 g per mouse, the daily intake of TG[…] was 25 mg per mouse. Also, since the total fatty acids bonded to the arachidonic acid-containing oils or fats (triglycerides) prepared in Example 1 included 40 wt % arachidonic acid, the daily intake of arachidonic acid was 10 mg per mouse. The 6-hour restraint with a wire mesh restraining tube was immediately followed by a behavioral observation test. […]"}, "[2]": {"system": "IL-1β induced stress anxiety behavior models", "details": "administration of free arachidonic acid; J Lipid Res. 44, 1984, 2003; cited from earlier work"}},
  "data": [
    {"smiles": "CCCCC/C=C\\C/C=C\\C/C=C\\C/C=C\\CCCC(=O)O", "note": "[arachidonic acid]", "values": [
      {"measurement": "overall effect on behavioral patterns altered as a result of stress", "setting": "[1]", "result": "exhibits an improving effect against behavioral disorders"},
      {"measurement": "effect on IL-1β induced stress anxiety behavior", "setting": "[2]", "result": "not effective"}
    ]}
  ]
}
